Data as given in ChEMBL document CHEMBL1201862, “PubChem BioAssay data set” (2004).
Activity calls are given as the source filed them.

Legend:
[1] = decrease of insulin promoter-GFP reporter – imaging, high-content screening, mouse beta cells (AID 1628); assay type: functional; settings: MIN6
[2] = target: Luciferin 4-monooxygenase (Photinus pyralis, UniProt P08659); test: Counter Screen for Luciferase-based Assay Positives. [Related pubchem assays: 620, 618, 411 ]
[3] = Luminescence Cell-Based Dose Response HTS to Identify Inhibitors of 5'UTR Stem-Loop Driven Prion Protein mRNA Translation in H4 Neuroglioblastoma Cells. [Related pubchem assays: 1827 (Project Summary), 1813 (Primary HTS)]; assay type: functional
[4] = MIN6 cell viability loss – mouse insulinoma, cytotoxicity control, dose response (AID 2122); assay type: functional;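 also: confirmatory high-throughput counterscreen run to flag cytotoxic compounds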
[5] = alpha-synuclein stem-loop luciferase translation blockers – H4 neuroglioma cells, luminescence, confirmation (AID 1988); assay type: functional, cell-based
HT-1080 = test: HT1080 cell viability loss – fluorescence readout (AID 620); assay type: functional, cell-based; settings: Homo sapiens
CAAX prenyl protease 2 = CAAX prenyl protease 2 (Homo sapiens, UniProt Q9Y256); test: inhibition of Ras-converting CAAX protease Rce1 – biochemical, yeast membranes, quenched-peptide fluorescence, cherry-pick, dose response (AID 588849)
Sequence of CAAX prenyl protease 2 (Q9Y256 whole entry): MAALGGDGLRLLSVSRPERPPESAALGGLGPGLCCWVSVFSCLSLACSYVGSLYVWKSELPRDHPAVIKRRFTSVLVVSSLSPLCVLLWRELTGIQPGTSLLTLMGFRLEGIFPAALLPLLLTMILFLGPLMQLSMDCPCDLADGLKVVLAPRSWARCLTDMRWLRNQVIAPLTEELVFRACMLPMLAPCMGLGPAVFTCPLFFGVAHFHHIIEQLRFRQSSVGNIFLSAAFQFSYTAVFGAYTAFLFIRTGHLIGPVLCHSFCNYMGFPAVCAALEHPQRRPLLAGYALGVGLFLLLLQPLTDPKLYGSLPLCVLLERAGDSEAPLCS

[6] = acridine orange displacement from DNA – biochemical, fluorescence polarization, cherry-pick, artefact control for RAD54 inhibitor project, dose response (AID 651673); assay type: functional
[7] = target: T1, DNA repair and recombination protein RAD54-like (Homo sapiens, UniProt Q92698); test: RAD54 Holliday junction migration blockers – biochemical, fluorescence, cherry-picked samples, dose series, confirmation (AID 651657); assay type: functional
T1 sequence (Q92698 whole entry): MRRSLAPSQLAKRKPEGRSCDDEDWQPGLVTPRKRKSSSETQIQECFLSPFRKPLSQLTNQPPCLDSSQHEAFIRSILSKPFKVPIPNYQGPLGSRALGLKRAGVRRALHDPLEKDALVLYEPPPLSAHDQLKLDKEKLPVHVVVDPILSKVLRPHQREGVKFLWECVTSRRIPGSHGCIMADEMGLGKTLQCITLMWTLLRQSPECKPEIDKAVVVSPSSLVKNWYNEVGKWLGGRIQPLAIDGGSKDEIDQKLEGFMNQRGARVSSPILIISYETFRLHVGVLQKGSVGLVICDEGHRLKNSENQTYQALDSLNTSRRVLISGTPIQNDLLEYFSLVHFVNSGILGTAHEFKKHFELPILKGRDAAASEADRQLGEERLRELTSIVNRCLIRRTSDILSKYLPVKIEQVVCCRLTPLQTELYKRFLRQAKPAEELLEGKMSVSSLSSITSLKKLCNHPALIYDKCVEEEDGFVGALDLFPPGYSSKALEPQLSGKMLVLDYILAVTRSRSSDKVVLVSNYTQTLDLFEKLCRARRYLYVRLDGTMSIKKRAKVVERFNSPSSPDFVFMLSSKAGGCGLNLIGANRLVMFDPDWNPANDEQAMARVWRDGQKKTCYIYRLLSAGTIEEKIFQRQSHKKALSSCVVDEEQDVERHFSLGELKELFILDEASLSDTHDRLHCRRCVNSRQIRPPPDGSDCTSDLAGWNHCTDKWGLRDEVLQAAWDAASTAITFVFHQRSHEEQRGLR

HEK293 [8] = test: cells; settings: Homo sapiens
HEK293 [9] = test: cells; settings: Homo sapiens; remark: listed apart in the source
BJ [10] = test: BJ-TERT fibroblast viability loss – cell-based, RAS-independent, luminescence, dose response (AID 1933); assay type: functional; settings: Homo sapiens
BJ [11] = test: cells; assay type: functional, cell-based; settings: Homo sapiens
BJ [12] = test: BJ-TERT-LT-ST fibroblast viability loss – cell-based, RAS-independent, luminescence, dose response (AID 1935); assay type: functional; settings: Homo sapiens;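 also: BJ fibroblasts immortalized with TERT plus LT and ST oncogenes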
[13] = DRD fibroblast viability loss – cell-based, non-viral oncogenic, luminescence, dose response (AID 1934); assay type: functional; settings: Homo sapiens
[14] = target: T2, Microphthalmia-associated transcription factor (Homo sapiens, UniProt O75030); test: reducers of TRPM1 reporter luminescence, concentration series – cell-based, SK-MEL-5, cherry-picked, set 3, MITF inhibitor project, dose response (AID 493073); assay type: functional;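 also: SK-MEL-5 melanoma cells with luciferase driven by the MITF target TRPM1 promoter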
T2 sequence (O75030 whole entry): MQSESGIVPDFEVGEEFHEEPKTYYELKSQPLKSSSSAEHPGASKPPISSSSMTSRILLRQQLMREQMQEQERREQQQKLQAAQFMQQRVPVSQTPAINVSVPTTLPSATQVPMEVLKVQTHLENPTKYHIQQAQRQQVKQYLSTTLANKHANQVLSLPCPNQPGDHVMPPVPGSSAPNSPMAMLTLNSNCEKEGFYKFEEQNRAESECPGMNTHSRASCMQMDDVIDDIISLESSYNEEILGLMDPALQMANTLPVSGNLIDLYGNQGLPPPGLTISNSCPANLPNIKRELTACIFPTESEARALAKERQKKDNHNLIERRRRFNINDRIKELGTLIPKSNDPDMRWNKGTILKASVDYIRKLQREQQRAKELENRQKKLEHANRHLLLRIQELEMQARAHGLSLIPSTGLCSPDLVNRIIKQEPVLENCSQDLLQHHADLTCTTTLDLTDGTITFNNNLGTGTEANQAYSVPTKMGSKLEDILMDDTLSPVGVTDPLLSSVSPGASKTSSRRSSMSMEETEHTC

BJ [15] = test: growth inhibition of engineered Ras-driven BJ cells – cell-based, alamar blue fluorescence, cherrypicked samples, dose response (AID 2631); assay type: functional; settings: Homo sapiens;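 also: confirmatory dose-response assay in RAS-dependent BJ fibroblasts engineered with TERT, LT and ST, with cytotoxicity read by fluorescence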
A-375 = test: proliferation inhibition in MITF-low A375 cells – cell-based, cherry-pick samples, set 2, counter-screen for MITF modulator project, dose response (AID 540335); assay type: functional; settings: Homo sapiens
Paired box protein Pax-8 = Paired box protein Pax-8 (Homo sapiens, UniProt Q06710); test: PAX8 transcriptional activity inhibition in RMG-I – RMG-I cells, luciferase, cherry-pick, dose response (AID 687027); assay type: functional, cell-based;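 also: luciferase reporter driven by Pax8 target thyroperoxidase promoter measured by SteadyGlo luminescence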
Sequence of Paired box protein Pax-8 (Q06710 whole entry): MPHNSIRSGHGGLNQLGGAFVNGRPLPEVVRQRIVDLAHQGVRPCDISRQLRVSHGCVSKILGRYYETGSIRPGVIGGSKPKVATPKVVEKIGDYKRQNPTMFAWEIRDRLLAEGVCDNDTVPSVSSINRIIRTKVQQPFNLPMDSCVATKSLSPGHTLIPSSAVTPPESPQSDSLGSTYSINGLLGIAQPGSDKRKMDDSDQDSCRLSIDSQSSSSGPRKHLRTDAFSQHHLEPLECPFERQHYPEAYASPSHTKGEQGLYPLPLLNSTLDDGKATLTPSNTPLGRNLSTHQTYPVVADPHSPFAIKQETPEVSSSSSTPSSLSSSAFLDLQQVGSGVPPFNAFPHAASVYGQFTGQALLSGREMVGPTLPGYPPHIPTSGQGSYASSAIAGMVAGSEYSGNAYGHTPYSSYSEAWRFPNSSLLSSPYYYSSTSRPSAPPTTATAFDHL

[16] = HEK-293T cell viability reduction – luminescence, B-cell screen hits, cytotoxicity control for BCR NF-kB inhibitor project, dose response (AID 489021); assay type: functional, cell-based;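 also: HEK-293T cells carrying an NF-kB luciferase reporter; cells exposed to compound for about 14 hours before viability readout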
HEK293 [17] = test: HEK293T cell viability loss, resazurin readout – resazurin fluorescence, cytotoxicity control for NF-kB activator project, SAR follow-up (AID 493251); assay type: functional, cell-based
Jurkat = test: SAR Analysis of small molecule inhibitors of T-cell specific antigen receptor-induced NF-kB activation in a Jurkat cell line using a luminescence assay - Set 2. [Related pubchem assays (depositor defined):AID435003, AID435012, AID465]; assay type: functional, cell-based; settings: Homo sapiens
HEK293 [18] = test: SAR Analysis of small molecule inhibitors of T-cell specific antigen receptor-induced NF-kB activation in a HEK-293T cell line using a luminescence assay - Set 2. [Related pubchem assays (depositor defined):AID435003, AID435012, AID489026]; assay type: functional, cell-based; settings: Homo sapiens

Sequence of Luciferin 4-monooxygenase (P08659 whole entry): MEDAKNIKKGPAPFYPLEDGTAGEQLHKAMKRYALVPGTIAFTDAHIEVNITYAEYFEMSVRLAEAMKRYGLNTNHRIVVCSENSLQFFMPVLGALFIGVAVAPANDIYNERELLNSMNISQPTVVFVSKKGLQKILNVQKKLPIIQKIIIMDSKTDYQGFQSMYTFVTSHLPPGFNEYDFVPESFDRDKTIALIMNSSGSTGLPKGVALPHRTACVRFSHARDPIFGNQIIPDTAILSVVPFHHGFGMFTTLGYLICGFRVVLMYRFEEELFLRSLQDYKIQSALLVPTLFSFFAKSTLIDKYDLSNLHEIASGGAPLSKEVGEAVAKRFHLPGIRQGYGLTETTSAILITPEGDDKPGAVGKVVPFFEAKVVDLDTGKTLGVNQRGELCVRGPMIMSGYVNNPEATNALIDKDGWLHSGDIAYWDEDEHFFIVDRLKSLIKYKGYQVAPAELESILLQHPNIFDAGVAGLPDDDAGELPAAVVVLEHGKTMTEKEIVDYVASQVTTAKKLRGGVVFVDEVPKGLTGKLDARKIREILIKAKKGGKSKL

Nc1cccc2nc3ccccc3cc12
IC50 [1]: 3.72 µM (active)
EC50 [2]: 0.95 µM (active)
EC50 [3]: 7.26 µM (active)
IC50 [4]: 4.9 µM (active)
EC50 [5]: > 120 µM (not active)
EC50 (HT-1080): 22.8 µM (active)
AC50 (CAAX prenyl protease 2): 5.07 µM (active)
AC50 [6]: 54 µM (active)
AC50 [7]: 4.75 µM (active)
EC50 (HEK293 [8]): > 6.63 µM (active)
EC50 (HEK293 [9]): > 59.7 µM (inactive)

Cc1cc(-n2c(SCC(=O)NCCC3=CCCCC3)nc3nnc(C)c-3c2N)ccc1Cl
EC50 (BJ [10]): 6.61 µM (active)
EC50 (BJ [11]): > 150 µM (not active)
EC50 (BJ [12]): > 150 µM (inconclusive)
EC50 [13]: 14 µM (active)
AC50 [14]: 17.1 µM (active)
EC50 (BJ [15]): > 133 µM (inactive)
AC50 (A-375): 37.6 µM (active)
AC50 (Paired box protein Pax-8): 7.33 µM (active)

CCNC(=O)CCc1nc(-c2ccc(C(C)(C)C)cc2)no1
IC50 [16]: > 80 µM (inactive)
IC50 (HEK293 [17]; Homo sapiens, HEK293): 76.1 µM (inactive)
IC50 (HEK293 [17]; hek293): 79.3 µM (inactive)
IC50 (Jurkat): > 79 µM (inactive)
IC50 (HEK293 [18]): 34 µM (inactive)
